Assay results published in US20130096170A1 (priority 2011, published 2013).
Entries after “also recorded” stand apart in the source; their conditions may differ.

Tested on: prenatal Cynomolgus monkey brains (frontal cortex)
[1] = Group 2, 20 mg/kg im + 20-50 mg/kg/hr, 5 fetal brains examined

**Q.** For `CNC1(c2ccccc2Cl)CCCCC1=O` (centres unmarked) [ketamine], which “Severity scoring of neuroapoptotic lesions, Activated caspase 3” value [1] is on record?
**A.** 3.5 ± 0.7

**Q.** And the “Severity scoring of neuroapoptotic lesions, HE” value [1]?
**A.** 1.9 ± 1.2

**Q.** What about the “Severity scoring of neuroapoptotic lesions, Silver” value [1] of the same compound?
**A.** 2.0 ± 0.8

**Q.** And the “Severity scoring of neuroapoptotic lesions, TUNEL” value [1]?
**A.** 2.9 ± 1.1

**Q.** And the “neuroapoptotic lesions / damaged and apoptotic cells in fetal frontal cortex” value (Group 2: 20 mg/kg IM+20-50 mg/kg/hr ketamine to pregnant monkeys, H&E, silver, TUNEL, AC3)?
**A.** abundant neuroapoptotic lesions; also recorded: moderate to large number of damaged and apoptotic cells; also recorded: marked neuroapoptosis and cellular damage with necrosis
